Values quoted from earlier work in US7144595B2, “Prepared foods containing triglyceride-recrystallized non-esterified phytosterols” (Brandeis University, priority 2001, dated 2006).

System: humans

Structure (SMILES) | decrease of plasma cholesterol level (9–18 grams per day, coarse powdered form) | lowering of serum cholesterol (12–18 g per day in divided doses, males with atherosclerosis (Faquhar 1956))
CC[C@H](CC[C@@H](C)[C@H]1CC[C@H]2[C@@H]3CC=C4C[C@@H](O)CC[C@]4(C)[C@H]3CC[C@]12C)C(C)C [sitosterol] | approximately 15% | 
CC[C@H](CC[C@@H](C)[C@H]1CC[C@H]2[C@@H]3CC=C4C[C@@H](O)CC[C@]4(C)[C@H]3CC[C@]12C)C(C)C [beta sitosterol] |  | 15–20%
